Measured values reported in patent US7119088B2, “Triazole compounds useful in therapy” (Pfizer Inc., priority 2003, dated 2006).
Structures can show the parent of a compound that is named as a salt.

Biological target: T1, human V1A receptor (Homo sapiens, UniProt P37288)
T1 construct: host or cells: CHO (CHO-hV1A), membrane preparation
Assay: V1A filter binding assay (screen 1.0)
Details: [3H]-AVP binding to CHO-hV1A membranes; Ki by Cheng-Prusoff
Experimental: 1.0 V1A Filter Binding Assay
Receptor binding assays were performed on cellular membranes prepared from CHO cells stably expressing the human V1A receptor, (CHO-hV1A). The CHO-hV1A cell line was kindly provided under a licensing agreement by Marc Thibonnier, Dept. of Medicine, Case Western Reserve University School of Medicine, Cleveland, Ohio. CHO-hV1A cells were routinely maintained at 37° C. in humidified atmosphere with 5% CO2 in DMEM/Hams F12 nutrient mix supplemented with 10% fetal bovine serum, 2 mM L-glutamine, 15 mM HEPES and 400 μg/ml G418. For bulk production of cell pellets, adherent CHO-hV1A cells were grown to confluency of 90–100% in 850 cm^2 roller bottles containing a medium of DMEM/Hams F12 Nutrient Mix supplemented with 10% fetal bovine serum, 2 mM L-glutamine and 15 mM HEPES. Confluent CHO-hV1A cells were washed with phosphate-buffered saline (PBS), harvested into ice cold PBS and centrifuged at 1,000 rpm. Cell pellets were stored at −80° C. until use. Cell pellets were thawed on ice and homogenised in membrane preparation buffer consisting of 50 mM Tris-HCl, pH 7.4, 5 mM MgCl2 and supplemented with a protease inhibitor cocktail, (Roche). The cell homogenate was centrifuged at 1000 rpm, 10 min, 4° C. and the supernatant was removed and stored on ice. The remaining pellet was homogenised and centrifuged as before. The supernatants were pooled and centrifuged at 25,000×g for 30 min at 4° C. The pellet was resuspended in freezing buffer consisting of 50 mM Tris-HCl, pH 7.4, 5 mM MgCl2 and 20% glycerol and stored in small aliquots at −80° C. until use. Protein concentration was determined using Bradford reagent and BSA as a standard.
Protein linearity followed by saturation binding studies were performed on each new batch of membrane. Membrane concentration was chosen that gave specific binding on the linear portion of the curve.
Compounds were tested for their effects on [^3H]-AVP binding to CHO-hV1A membranes, (^3H-AVP; specific activity 65.5 Ci/mmol; NEN Life Sciences). Compounds were solubilised in dimethylsulfoxide (DMSO) and diluted to working concentration of 10% DMSO with assay buffer containing 50 mM Tris-HCL pH 7.4, 5 mM MgCl2 and 0.05% BSA. […] The binding reaction was initiated by the addition of 200 μl membrane and the plates were gently shaken for 60 min at room temperature. […] The filters were washed three times with 1 ml ice cold wash buffer containing 50 mM Tris-HCL pH 7.4 and 5 mM MgCl2. The plates were dried and 50 μl Microscint-O (Packard instruments) was added to each well. The plates were sealed and counted on a TopCount Microplate Scintillation Counter (Packard Instruments). Non-specific binding (NSB) was determined using 1 μM unlabelled d(CH2)5Tyr(Me)AVP ([β-mercapto-β,β-cyclopentamethylenepropionyl,0-Me-Tyr^2,Arg^8]-vasopressin ) (βMCPVP), (Sigma). The radioligand binding data was analysed using a four parameter logistic equation with the min forced to 0%. […] Specific binding was calculated by subtracting the mean NSB cpm from the mean Total cpm. For test compounds the amount of ligand bound to the receptor was expressed as % bound=(sample cpm—mean NSB cpm)/specific binding cpm×100. The % bound was plotted against the concentration of test compound and a sigmoidal curve was fitted. The inhibitory dissociation constant (Ki) was calculated using the Cheng-Prusoff equation: Ki=IC50/(1+[L]/Kd) where [L] is the concentration of ligand present in the well and Kd is the dissociation constant of the radioligand obtained from Scatchard plot analysis.

T1 sequence (P37288 whole entry): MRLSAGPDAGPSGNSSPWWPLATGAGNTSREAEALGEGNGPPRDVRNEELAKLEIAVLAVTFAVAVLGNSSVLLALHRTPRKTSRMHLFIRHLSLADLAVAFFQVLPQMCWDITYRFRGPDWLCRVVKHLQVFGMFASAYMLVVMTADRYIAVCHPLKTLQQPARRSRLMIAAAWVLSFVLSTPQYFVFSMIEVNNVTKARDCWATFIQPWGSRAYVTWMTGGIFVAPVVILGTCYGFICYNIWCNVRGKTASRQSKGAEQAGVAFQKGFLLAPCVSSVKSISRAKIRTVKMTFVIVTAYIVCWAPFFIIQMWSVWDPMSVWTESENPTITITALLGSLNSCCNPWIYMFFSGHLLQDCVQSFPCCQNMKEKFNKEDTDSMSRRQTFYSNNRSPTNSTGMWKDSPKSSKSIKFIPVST

With `CN1CCOC(CN2Cc3cc(Cl)ccc3-n3c(nnc3C3CCN(c4ccccn4)CC3)C2)C1` (single isomer, unassigned) [Example 73, 8-Chloro-5-(4-methyl-morpholin-2-ylmethyl)-1-(3,4,5,6-tetrahydro-2H-[1,2′]bipyridinyl-4-yl)-5,6-dihydro-4H-2,3,5,10b-tetraaza-benzo[e]azulene] the Ki was 6.84 nM.

`CN1CCOC(CN2Cc3cc(Cl)ccc3-n3c(nnc3C3CCN(c4ccccn4)CC3)C2)C1` (single isomer, unassigned) [Example 74, 8-Chloro-5-(4-methyl-morpholin-2-ylmethyl)-1-(3,4,5,6-tetrahydro-2H-[1,2′]bipyridinyl-4-yl)-5,6-dihydro-4H-2,3,5,10b-tetraaza-benzo[e]azulene] was tested, and the Ki was 6.02 nM.

`CC(C)N1Cc2cc(Cl)ccc2-n2c(nnc2C2CCN(c3ccccn3)CC2)C1` [Example 6, 8-Chloro-5-isopropyl-1-(3,4,5,6-tetrahydro-2H-[1,2′]bipyridinyl-4-yl)-5,6-dihydro-4H-2,3,5,10b-tetraaza-benzo[e]azulene trihydrochloride] gave a Ki of 2.37 nM.

With `CN1Cc2cc(Cl)ccc2-n2c(nnc2C2CCN(c3ncccn3)CC2)C1` [Example 13, 8-Chloro-5-methyl-1-(1-pyrimidin-2-yl-piperidin-4-yl)-5,6-dihydro-4H-2,3,5,10b-tetraaza-benzo[e]azulene] the Ki was 13.9 nM.

With `CS(=O)(=O)N1Cc2cc(Cl)ccc2-n2c(nnc2C2CCN(c3ncccn3)CC2)C1` [Example 15, 8-Chloro-5-methanesulfonyl-1-(1-pyrimidin-2-yl-piperidin-4-yl)-5,6-dihydro-4H-2,3,5,10b-tetraaza-benzo[e]azulene] the Ki was 4.71 nM.

With `CN1CCc2cc(Cl)ccc2-n2c(nnc2C2CCN(c3ccccn3)CC2)C1` [Example 24, 13-Chloro-8-methyl-3-(3,4,5,6-tetrahydro-2H-[1,2′]bipyridinyl-4-yl)-2,4,5,8-tetraaza-tricyclo[9.4.0.0*2,6*]pentadeca-1(11),3,5,12,14-pentaene] the Ki was 1 nM.

`Clc1ccc2c(c1)CCOCc1nnc(C3CCN(c4ccccn4)CC3)n1-2` [Example 27, 13-Chloro-3-(3,4,5,6-tetrahydro-2H-[1,2′]bipyridinyl-4-yl)-8-oxa-2,4,5-triaza-tricyclo[9.4.0.0*2,6*]pentadeca-1(11),3,5,12,14-pentaene] gave a Ki of 1.25 nM.

`CN(C)CC(=O)N1Cc2cc(Cl)ccc2-n2c(nnc2C2CCN(c3ccccn3)CC2)C1` [Example 38, 1-[8-Chloro-1-(3,4,5,6-tetrahydro-2H-[1,2′]bipyridinyl-4-yl)-4H,6H-2,3,5,10b-tetraaza-benzo[e]azulen-5-yl]-2-dimethylamino-ethanone] gave a Ki of 4.63 nM.

`O=C(N1CCOCC1)N1Cc2cc(Cl)ccc2-n2c(nnc2C2CCN(c3ccccn3)CC2)C1` [Example 59] gave a Ki of 1.32 nM.

For `Clc1ccc2c(c1)CN(c1ncccn1)Cc1nnc(C3CCN(c4ccccn4)CC3)n1-2` [Example 93, 8-Chloro-5-pyrimidin-2-yl-1-(3,4,5,6-tetrahydro-2H-[1,2′]bipyridinyl-4-yl)-5,6-dihydro-4H-2,3,5,10b-tetraaza-benzo[e]azulene], the Ki was 2.33 nM.

Compound `CN(C)S(=O)(=O)N1Cc2cc(Cl)ccc2-n2c(nnc2C2CCN(c3ncccn3)CC2)C1` [Example 100, 8-Chloro-1-(1-pyrimidin-2-yl-piperidin-4-yl)-4H,6H-2,3,5,10b-tetraaza-benzo[e]azulene-5-sulphonic acid dimethylamide] has a Ki of 0.77 nM.

Compound `CN1CCc2nnc(C3CCN(c4ccccn4)CC3)n2-c2ccc(Cl)cc2C1` [Example 102, 13-Chloro-9-methyl-3-(3,4,5,6-tetrahydro-2H-[1,2′]bipyridinyl-4-yl)-2,4,5,9-tetraaza-tricyclo[9.4.0.0*2,6*]pentadeca-1(11),3,5,12,14-pentaene] has a Ki of 4.16 nM.

Work on `CN1CCc2cc(Cl)ccc2-n2c(nnc2C2CCN(c3ncccn3)CC2)C1` [Example 103, 13-Chloro-8-methyl-3-(1-pyrimidin-2-yl-piperidin-4-yl)-2,4,5,8-tetraaza-tricyclo[9.4.0.0*2,6*]pentadeca-1(11),3,5,12,14-pentaene] yielded a Ki of 2.02 nM.
